According to patent US11214803B2, “Modulators of YAP1 expression” (Ionis Pharmaceuticals, Inc., priority 2019, dated 2022):
Strand notation (5' to 3'): a small letter for the sugar, then the base; units joined by * are phosphorothioate-linked, units joined directly phosphodiester-linked; [ ] holds rarer units or linkages, { } end groups; capitals alone tell only the bases. e = 2'-O-(2-methoxyethyl) (MOE); k = constrained ethyl (cEt); [5mC] = 5-methylcytosine; d = 2'-deoxy (DNA); m = 2'-O-methyl

Test system: Yap1 mRNA
Experiment: Antisense inhibition of human Yap1 in SNU-449 cells by modified oligonucleotides, single dose (Example 5, RTS36584)
Assay type: cell-based
Procedure, shortened: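 Plate SNU-449 cells at 10,000 per well; add 2,000 nM modified oligonucleotide without transfection reagent; after ~48 h isolate RNA, run qRT-PCR with RTS36584, normalise to RIBOGREEN and report % UTC.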

[1] = Table 51, Yap1 mRNA remaining as percent of untreated control (UT), SNU-449 cells, single dose
[2] = Yap1 mRNA, percent of untreated control, modified oligonucleotides targeting SEQ ID NO: 1 and 2, Table 47
[3] = Table 50, Yap1 mRNA remaining as percent of untreated control (UT), SNU-449 cells, single dose
[4] = Table 39, SNU-449 cells, 10,000 cells per well, free uptake, 2,000 nM oligonucleotide, approx. 48 hours, RTS36584, normalized to RIBOGREEN, Yap1 mRNA relative to untreated control
[5] = Table 40 (separate experiment), SNU-449 cells, 10,000 cells per well, free uptake, 2,000 nM oligonucleotide, approx. 48 hours, RTS36584, normalized to RIBOGREEN, Yap1 mRNA relative to untreated control
[6] = Table 42 (separate experiment), SNU-449 cells, 10,000 cells per well, free uptake, 2,000 nM modified oligonucleotide, approximately 48 hours, RTS36584, normalized to RIBOGREEN, Yap1 mRNA relative to untreated control cells
[7] = Table 48, Yap1 mRNA level relative to untreated control, modified oligonucleotides targeting SEQ ID NO.: 1 and 2
[8] = Table 49, Yap1 mRNA level relative to untreated control, modified oligonucleotides targeting SEQ ID NO.: 1 and 2
[9] = Table 44 experiment, SNU-449 cells, 10,000 cells per well, free uptake, 2,000 nM, approximately 48 hours, RTS36584, Yap1 mRNA normalized to RIBOGREEN, relative to untreated control cells
[10] = Table 41, SNU-449 cells, 10,000 cells per well, free uptake, 2,000 nM modified oligonucleotide, approximately 48 hours, RTS36584, normalized to RIBOGREEN, Yap1 mRNA relative to untreated control cells
[11] = Table 52, Yap1 mRNA, modified oligonucleotides targeting SEQ ID NO: 1 and 2

Substance: 1200795 (kT*kA*kG*dA*dG*mU*dA*dT*dG*dT*dG*dG*d[5mC]*kA*kA*kT; antisense) [Compound 1200795]
- YAP1 (% UT) [1]: 30 % UT

Substance: 1197184 (antisense kA*kG*k[5mC]*dA*d[5mC]*dT*dT*dT*dT*dA*d[5mC]*dA*dT*kT*kA*kG) [Compound 1197184]
- YAP1 (% UT) [2]: 20 % UT

Substance: 1197231 (antisense kA*kT*kG*dG*mA*dA*dA*dT*dT*dG*dT*d[5mC]*dT*k[5mC]*kA*kT) [Compound 1197231]
- YAP1 (% UT) [3]: 50 % UT

Substance: 1197315 (kA*kA*k[5mC]*dT*mU*dT*dA*dA*dA*dG*dT*dG*dT*kA*kT*kG; antisense) [Compound 1197315]
- YAP1 (% UT) [1]: 116 % UT

Substance: 1198395 (k[5mC]*dT*dT*dT*dT*dA*d[5mC]*dA*dT*dT*dA*kG*eG*kA*eA*k[5mC]; antisense) [Compound 1198395]
- YAP1 (% UTC) [4]: 35 % UTC

Substance: 1198462 (antisense kT*kG*dG*dA*dA*dA*dT*dT*dG*dT*d[5mC]*eT*k[5mC]*eA*kT*eG) [Compound 1198462]
- YAP1 (% UTC) (Table 43 experiment, SNU-449 cells, 10,000 cells per well, free uptake, 2,000 nM, approximately 48 hours, RTS36584, Yap1 mRNA normalized to RIBOGREEN, relative to untreated control cells): 27 % UTC

Substance: 1198720 (kT*eG*kG*dA*dA*dA*dT*dT*dG*dT*d[5mC]*dT*e[5mC]*eA*kT*kG; antisense) [Compound 1198720]
- YAP1 (% UTC) [5]: 21 % UTC

Substance: 1198710 (kA*k[5mC]*dT*dA*dA*dG*dT*dA*dA*dG*dG*dT*kT*eT*k[5mC]*e[5mC]; antisense) [Compound 1198710]
- YAP1 (% UTC) [6]: 51 % UTC

Substance: 1198856 (k[5mC]*kT*dT*dA*dT*dA*dT*dG*dG*dT*dT*kT*eT*kG*eT*kG; antisense) [Compound 1198856]
- YAP1 (% UT) (Table 46, Yap1 mRNA as percent of untreated control, SNU-449 cells, single dose): 20 % UT

Substance: 1198725 (kT*eA*kG*dA*dG*dT*dA*dT*dG*dT*dG*dG*e[5mC]*eA*kA*kT; antisense) [Compound 1198725]
- YAP1 (% UTC) [5]: 23 % UTC

Substance: 1198320 (kG*k[5mC]*kT*dT*dT*dG*dG*dA*dA*dG*dA*dT*k[5mC]*eT*kG*eA; antisense) [Compound 1198320]
- YAP1 (% UT) [7]: 26 % UT

Substance: 1198213 (kA*kT*dA*dT*dT*dA*dG*dA*dG*dT*dA*eT*eG*eT*kG*kG; antisense) [Compound 1198213]
- YAP1 (% UTC) [6]: 16 % UTC

Substance: 1198438 (kT*dG*dT*dA*dT*dG*dT*d[5mC]*dA*dG*dA*kA*eG*kA*eG*kT; antisense) [Compound 1198438]
- YAP1 (% UTC) [5]: 7 % UTC

Substance: 1198401 (kT*dT*dA*dA*dG*d[5mC]*dA*d[5mC]*dT*dT*dT*kT*eA*k[5mC]*eA*kT; antisense) [Compound 1198401]
- YAP1 (% UTC) [4]: 63 % UTC

Substance: 1009395 (k[5mC]*kT*kG*dA*dG*dG*dT*dA*dT*dA*dA*d[5mC]*dT*kG*kG*kG; antisense) [Compound 1009395]
- YAP1 (% UT) [7]: 43 % UT

Substance: 1198575 (antisense kT*kT*kG*dG*dA*dA*dG*dA*dT*d[5mC]*dT*dG*kA*kA*kA*e[5mC]) [Compound 1198575]
- YAP1 (% UT) [8]: 94 % UT

Substance: 1198200 (kA*kA*dT*dT*dG*dT*d[5mC]*dT*d[5mC]*dA*dT*eG*e[5mC]*e[5mC]*kT*kT; antisense) [Compound 1198200]
- YAP1 (% UTC) [6]: 49 % UTC

Substance: 1198428 (kG*dA*d[5mC]*dA*dA*d[5mC]*dT*d[5mC]*dT*dT*dA*kT*eA*kT*eG*kG; antisense) [Compound 1198428]
- YAP1 (% UTC) [5]: 62 % UTC

Substance: 1197225 (antisense kG*kA*k[5mC]*dT*dA*dA*dG*dT*dA*dA*dG*dG*dT*kT*kT*k[5mC]) [Compound 1197225]
- YAP1 (% UT) [2]: 46 % UT

Substance: 1198625 (kG*kA*k[5mC]*dT*dA*dA*dG*dT*dA*dA*dG*dG*kT*kT*kT*e[5mC]; antisense) [Compound 1198625]
- YAP1 (% UT) [3]: 64 % UT

Substance: 1198542 (antisense kT*kG*kT*d[5mC]*dT*d[5mC]*dA*dT*dG*d[5mC]*d[5mC]*dT*kT*kA*kT*eA) [Compound 1198542]
- YAP1 (% UT) [8]: 23 % UT

Substance: 1198387 (kT*d[5mC]*dT*dA*dT*dA*dT*dT*dA*dG*dA*kG*eT*kA*eT*kG; antisense) [Compound 1198387]
- YAP1 (% UTC) [4]: 84 % UTC

Substance: 1198949 (kA*kT*dT*dG*d[5mC]*dA*dA*dT*d[5mC]*dT*dG*kT*d[5mC]*kT*dG*kA; antisense) [Compound 1198949]
- YAP1 (% UTC) (Table 45, Yap1 mRNA as percent of untreated control, SNU-449 cells, single dose): 61 % UTC

Substance: 1198342 (kG*kA*k[5mC]*dA*dA*d[5mC]*dT*d[5mC]*dT*dT*dA*dT*kA*eT*kG*eG; antisense) [Compound 1198342]
- YAP1 (% UT) [8]: 101 % UT

Substance: 1198702 (kT*kT*dT*dA*dA*dA*dG*dT*dG*dT*dA*dT*kG*eT*k[5mC]*eA; antisense) [Compound 1198702]
- YAP1 (% UTC) [6]: 74 % UTC

Substance: 1009326 (kT*kA*kT*dT*dA*dG*dA*dG*dT*dA*dT*dG*dT*kG*kG*k[5mC]; antisense) [Compound 1009326]
- YAP1 (% UT) [2]: 10 % UT

Substance: 1197190 (antisense k[5mC]*kT*kT*dT*dG*dG*dA*dA*dG*dA*dT*d[5mC]*dT*kG*kA*kA) [Compound 1197190]
- YAP1 (% UT) [2]: 57 % UT

Substance: 1198501 (kG*kA*dT*dT*dT*dA*dG*dG*dA*dT*dG*e[5mC]*kA*eT*kG*eG; antisense) [Compound 1198501]
- YAP1 (% UTC) [9]: 5 % UTC

Substance: 1198493 (antisense kT*kG*d[5mC]*dT*dT*dT*dG*dG*dA*dA*dG*eA*kT*e[5mC]*kT*eG) [Compound 1198493]
- YAP1 (% UTC) [9]: 28 % UTC

Substance: 1198629 (kA*kT*dT*dG*dT*d[5mC]*dT*d[5mC]*dA*dT*dG*d[5mC]*k[5mC]*eT*kT*eA; antisense) [Compound 1198629]
- YAP1 (% UTC) [10]: 22 % UTC

Substance: 1198666 (antisense kG*kT*dG*d[5mC]*dT*dT*dT*dG*dG*dA*dA*dG*kA*eT*k[5mC]*eT) [Compound 1198666]
- YAP1 (% UTC) [10]: 44 % UTC

Substance: 1200817 (kA*kG*k[5mC]*dA*d[5mC]*mU*dT*dT*dT*dA*d[5mC]*dA*dT*kT*kA*kG; antisense) [Compound 1200817]
- YAP1 (% UT) [11]: 38 % UT

Substance: 1198422 (k[5mC]*dT*dT*dA*dT*dA*dT*dG*dG*dT*dT*kT*eT*kG*eT*kG; antisense) [Compound 1198422]
- YAP1 (% UTC) [4]: 18 % UTC

Substance: 1095623 (antisense k[5mC]*kA*d[5mC]*dT*dG*dA*dG*dG*dT*dA*dT*eA*kA*e[5mC]*kT*eG) [Compound 1095623]
- YAP1 (% UTC) [9]: 57 % UTC

Substance: 1198781 (antisense kG*eT*kA*dA*dT*dA*dT*dT*dG*d[5mC]*dA*dA*eT*e[5mC]*kT*kG) [Compound 1198781]
- YAP1 (% UTC) [5]: 25 % UTC

Substance: 1198597 (antisense kA*k[5mC]*kT*d[5mC]*dT*dT*dA*dT*dA*dT*dG*dG*kT*kT*kT*eT) [Compound 1198597]
- YAP1 (% UT) [3]: 27 % UT

Substance: 1200855 (kT*kT*kT*dA*dT*mG*dT*dA*dA*dT*dA*dT*dT*kG*k[5mC]*kA; antisense) [Compound 1200855]
- YAP1 (% UT) [11]: 56 % UT

Substance: 1198706 (kA*kG*dT*dA*dA*dG*dG*dT*dT*dT*d[5mC]*d[5mC]*k[5mC]*eA*kG*eA; antisense) [Compound 1198706]
- YAP1 (% UTC) [6]: 39 % UTC

Substance: 1198205 (kA*kT*dG*dG*dA*dA*dA*dT*dT*dG*dT*e[5mC]*eT*e[5mC]*kA*kT; antisense) [Compound 1198205]
- YAP1 (% UTC) [6]: 64 % UTC

Substance: 1198447 (kT*dA*dA*dG*dG*dT*dT*dT*d[5mC]*d[5mC]*d[5mC]*kA*eG*kA*eT*kT; antisense) [Compound 1198447]
- YAP1 (% UTC) [4]: 63 % UTC

Substance: 1198732 (kT*eA*kT*dA*dA*d[5mC]*dT*dG*dG*dG*d[5mC]*dA*eA*eA*kT*kT; antisense) [Compound 1198732]
- YAP1 (% UTC) [5]: 86 % UTC

Substance: 1197260 (kT*kT*kA*dT*mA*dT*dG*dG*dT*dT*dT*dT*dG*kT*kG*kT) [Compound 1197260]
- YAP1 (% UT) [1]: 65 % UT

Substance: 1198667 (antisense kA*kG*dT*dG*d[5mC]*dT*dT*dT*dG*dG*dA*dA*kG*eA*kT*e[5mC]) [Compound 1198667]
- YAP1 (% UTC) [10]: 40 % UTC

Substance: 1198296 (kT*kT*kA*dG*dA*dG*dT*dA*dT*dG*dT*dG*kG*e[5mC]*kA*eA; antisense) [Compound 1198296]
- YAP1 (% UT) [7]: 29 % UT

Substance: 1200871 (kG*kA*k[5mC]*dT*dA*mA*dG*dT*dA*dA*dG*dG*dT*kT*kT*k[5mC]; antisense) [Compound 1200871]
- YAP1 (% UT) [11]: 65 % UT
